This is an account of results in publication PMC10244880, “Chromosome-level genome assembly of Salvia miltiorrhiza with orange roots uncovers the role of Sm2OGD3 in catalyzing 15,16-dehydrogenation of tanshinones” (Horticulture Research, 2023).

The structures appear in SMILES notation.

In this assay the target is T1, Sm2OGD3 (Salvia miltiorrhiza, UniProt A0A8K1XH31).
T1 construct: gene TIIAS; full-length ORF (1119 nt, 373 aa printed) in pET-30a, E. coli BL21(DE3), crude extract
Description: UPLC / LC-MS product assay, crude recombinant E. coli extract, initial rates. Format: biochemical. To be noted: 2-oxoglutarate, ferrous sulfate, L-ascorbate; pH 8.0, 30 °C.

T1 sequence (A0A8K1XH31 entry or part of it): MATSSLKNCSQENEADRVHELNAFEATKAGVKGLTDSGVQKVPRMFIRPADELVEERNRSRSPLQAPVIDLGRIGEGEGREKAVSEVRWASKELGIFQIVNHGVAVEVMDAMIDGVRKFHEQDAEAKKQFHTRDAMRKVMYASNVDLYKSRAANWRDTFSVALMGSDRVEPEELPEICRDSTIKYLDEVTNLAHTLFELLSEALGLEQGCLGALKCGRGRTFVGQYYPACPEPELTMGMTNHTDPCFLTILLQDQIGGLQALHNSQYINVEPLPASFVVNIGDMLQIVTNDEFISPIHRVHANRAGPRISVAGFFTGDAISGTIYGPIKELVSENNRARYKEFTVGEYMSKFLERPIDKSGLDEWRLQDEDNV

The term Km denotes the substrate concentration at which the rate is half of its maximum. Consider `CC1=CCCc2c1ccc1c2C(=O)C(=O)C2=C1OCC2C` (stereo not shown) [THT, 1,2,15,16-tetrahydrotanshinone I], for which the Michaelis-Menten constant (Km) was determined as 20.9 µM.
